These results are taken from patent publication US5804576A, “Derivatives of 5-androsten-17-ones and 5-androstan-17-ones” (Research Corporation Technologies, Inc., priority 1986, dated 1998).

By inhibition is commonly meant the share of the control response that was lost under treatment.

One series deals with mouse breast epithilum. The following applies: in vivo; cited from earlier work.
The test system of series [1] is mammalian glucose-6-phosphate dehydrogenase (G6PDH). Particulars: cited from earlier work.
Series [2] concerns 3H-thymidine incorporation in mouse epidermis. Particulars: in vivo; cited from earlier work.
The test system of series [3] is Epstein-Barr virus-induced transformation of human lymphocytes. The following applies: cited from earlier work.
A further series has as its system rat uterus. Kind of series: Uterotrophic test, subcutaneous (Compound 2 vs. DHEA). The class given is in vivo. The following applies: for Mean Uterine Weight: n = 4 or 5. As to the method:
Twenty-two day old rats were obtained from Charles River Laboratories. Animals were used at 29 days of age. Test steroids were suspended by homogenization in sesame oil. Rats were orally intubated at 1-2 P.M. for 3 days with a test steroid in sesame oil or with sesame oil alone (control). On the 4th day the animals were killed and the uteri were removed and weighed.
Compound 2 vs. DHEA. Compounds Administered by Subcutaneous Injection
Steroids were dissolved in 2 ml ethanol and brought up to 5 ml volume with propylene glycol. Concentrations were such that 1 μl/gm body weight delivered the indicated dose.

Series [4] in a line: Anti-obesity test (body weight, food consumption). Format: in vivo, mouse (male A/J). The following applies: n = 5. The method, boiled down:
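Male A/J mice, 5 weeks old on arrival, housed 5 per cage at 24 °C on a 12 h light/dark cycle, were given steroid in chow from one week after arrival; dietary concentrations were varied, or 0.54% or 0.36%. Body weight and food consumption (food added minus remaining) were recorded weekly.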

Series [5] concerns TPA (Tumor Promoter) Stimulation of Mouse Epidermal DNA. Description: Inhibition of TPA stimulation of mouse epidermal DNA synthesis (3H-thymidine incorporation), oral. Format: in vivo, mouse (ICR male). The following applies: 200 mg/kg or 100 mg/kg oral. Summed up:
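Shaved male ICR mice (7-9 weeks) got steroid orally in sesame oil (0.5 ml/mouse), then topical TPA (10 μg in acetone) 1 h later. After 20 h, i.p. 60 μCi ³H-thymidine 20 min before sacrifice; epidermal DNA labelling expressed as cpm per μg DNA (diphenylamine assay).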
On the technique in general: Uptake of a labelled nucleoside into DNA is a usual measure of proliferation.

The target in series [6] is T1, purified bovine adrenal G6PDH (Bos taurus, UniProt F1MMK2).
T1 construct: full-length, wild type, no tag
T1 sequence (F1MMK2 31-70): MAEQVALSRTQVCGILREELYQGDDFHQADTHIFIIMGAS
T1 sequence (F1MMK2 101-575): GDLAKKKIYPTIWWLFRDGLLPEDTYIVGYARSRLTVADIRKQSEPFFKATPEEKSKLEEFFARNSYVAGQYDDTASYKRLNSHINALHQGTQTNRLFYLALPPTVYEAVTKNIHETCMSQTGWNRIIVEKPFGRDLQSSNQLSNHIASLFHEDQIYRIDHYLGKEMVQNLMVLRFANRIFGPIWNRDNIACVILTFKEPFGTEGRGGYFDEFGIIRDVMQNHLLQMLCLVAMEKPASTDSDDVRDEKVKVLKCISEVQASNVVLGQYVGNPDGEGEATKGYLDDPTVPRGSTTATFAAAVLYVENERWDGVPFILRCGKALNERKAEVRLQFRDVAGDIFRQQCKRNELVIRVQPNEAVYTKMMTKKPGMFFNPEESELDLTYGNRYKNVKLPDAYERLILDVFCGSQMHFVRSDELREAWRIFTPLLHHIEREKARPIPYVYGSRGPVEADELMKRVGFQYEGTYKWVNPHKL
Kind of series: Inhibition of purified bovine adrenal G6PDH. The class given is biochemical. The following applies: read-out: Percent Inhibition (G6PDH). Summed up: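 Inhibition of purified bovine adrenal G6PDH enzyme activity, run by the published Oertel and Rebelein (1969) procedure.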

Series [7] deals with TPA stimulation in DNA synthesis rate (mouse epidermis). Kind of series: Inhibition of TPA stimulation of mouse epidermal DNA synthesis, intraperitoneal. The class given is in vivo, mouse (ICR male). The following applies: i.p. dose-response. As to the method:
ICR male mice (7-9 weeks old) were shaved on the back 1-2 days before use. Only mice showing no hair regrowth were used. Animals were orally intubated with a particular steroid suspended by homogenization in sesame oil or with sesame oil alone (controls). One hour later TPA (10 μg in 0.2 ml of acetone) or acetone vehicle was applied topically to the shaved skin. Twenty hours later, mice were injected i.p. with 60 μCi of ^3 H-thymidine 20 minutes before sacrifice. The animals were killed by cervical dislocation and the residual hair was removed with a depilatory agent. Epidermal scrapings were prepared according to the procedures of Hennings et al. (Cancer Res. 28, 53, 1968), homogenized in distilled water at 4° C., and the macromolecules precipitated with 0.4N trichloroacetic acid (TCA). Following 6 washes with absolute ethanol at room temperature, the nucleic acids were hydrolyzed with 0.5N TCA at 70° C. for 5 minutes. The hydrolysate (0.2 ml aliquots) were counted in an Intertechnique scintillation counter and assayed for DNA by the diphenylamine reaction.
The data are expressed as counts per minute (cpm) of tritium per μg of DNA.
Compound 2 or 3 in comparison with DHEA by Intraperitoneal Injection.
Steroids were suspended in sterile 95% saline--5% Emulphor and injected intraperitoneally. Otherwise conditions were the same as when steroids were orally administered.

Structures are written as SMILES. Like-named read-outs stand apart in the source and are kept apart here.

`C[C@]12CC[C@H](O)C[C@@H]1CC[C@@H]1[C@@H]2CC[C@]2(C)C(=O)[C@H](Br)C[C@@H]12` [16α-bromo-epiandrosterone, 3β-hydroxy-16α-bromo-5α-androstan-17-one]: the “rate of [3H] thymidine incorporation into breast epithelium (in words)” value in the series with mouse breast epithilum is recorded as “more active than DHEA”. The entries for the “inhibition of mammalian G6PDH (in words)” value in [1] and in [1] (listed as 16α-Br-epiandrosterone) were “more potent inhibitor of mammalian G6PDH than DHEA” and “more active than DHEA in inhibiting G6PDH”, respectively. The “3H-thymidine incorporation in mouse epidermis (in words)” value in [2] is listed as “more active than DHEA”. In addition, the “inhibition of Epstein-Barr virus-induced transformation (in words)” value in series [3] is given as “inhibitors of Epstein-Barr virus-induced transformation of human lymphocytes”.
In the case of `C[C@]12CC[C@H](O)C[C@@H]1CC[C@@H]1[C@@H]2CC[C@]2(C)C(=O)CC[C@@H]12` [Compound 2], the “Mean Uterine Weight” value with rat uterus (10 mg/kg s.c.) is 151 ± 32 Mgs; in the series with rat uterus (60 mg/kg s.c.), 127 ± 32 Mgs. Also, the “estrogenic activity (in words)” value in the series on rat uterus (rat uterotrophic test, s.c.) is listed as “Neither compounds 16 nor 2 are estrogenic”. The mean weekly weight in series [4] (0.35% of diet, week 0) came out at 21.8 ± 1.6 grams; in [4] (0.35% of diet, week 1), 21.8 ± 1.3 grams; in series [4] (0.35% of diet, week 2), 22.0 ± 1.2 grams; in series [4] (0.35% of diet, week 3), 22.8 ± 1.3 grams; in series [4] (0.35% of diet, week 4), 24.2 ± 1.1 grams; in [4] (0.35% of diet, week 5), 24.4 ± 1.7 grams. Also, the mean weekly weight worked out at 24.8 ± 1.5 grams in series [4] (0.35% of diet, week 6); 25.4 ± 1.7 grams in series [4] (0.35% of diet, week 7); 21.3 ± 1.8 grams in series [4] (0.7% of diet, week 0); 20.6 ± 2.3 grams in series [4] (0.7% of diet, week 1); 20.6 ± 0.5 grams in series [4] (0.7% of diet, week 2); 20.8 ± 0.8 grams in series [4] (0.7% of diet, week 3). Further, the mean weekly weight in series [4] (0.7% of diet, week 4) worked out at 22.6 ± 0.6 grams; in [4] (0.7% of diet, week 5), 22.4 ± 0.5 grams; in [4] (0.7% of diet, week 6) it was 23.5 ± 0.9 grams; in series [4] (0.7% of diet, week 7) it was 23.8 ± 0.8 grams. Moreover, the “blocking the TPA stimulation in DNA synthesis rate (in words)” value in series [5] was “not active at 200 mg/kg or 100 mg/kg”. The inhibition at 0.1 µM in series [6] (Conc. 0.1 μm) was 36%. For the same molecule, the inhibition at 1 µM in series [6] (Conc. 1 μm) was determined as 64%. Besides, the inhibition at 10 µM in series [6] (Conc. 10 μm) is 82%. The “blocking the TPA stimulation in DNA synthesis rate, compared with DHEA (in words)” value in series [7] is “about as active as DHEA”.
